Values quoted from earlier work as cited in patent US6969532B2, “Compounds inhibiting COX-2 and iNOS promoter activities” (priority 2000, dated 2005).

System: human adenomatous polyposis
Details: randomized clinical trial

## Cc1ccc(-c2cc(C(F)(F)F)nn2-c2ccc(S(N)(=O)=O)cc2)cc1 [Celebrex]
  extent of polyp reduction: about 30%
